In US7893266B2, “Detection of cancer cells in vitro using sigma-2 receptor ligands as radiotracers” (Washington University, priority 2003, dated 2011):
Where two headings read alike, the source gives them in different places. Blank lines part the entries; values can stand above or below the compound they belong to.

What was measured:
[1] = system: EMT-6 mammary tumors; assay: Biodistribution in EMT-6 BALB/C mice; type: in vivo
Description: (§1) As used herein, the term “tumor:background ratio” (i.e., tumor:fat ratio, tumor:muscle ratio, tumor:lung ratio, tumor:blood ratio) refers to the % injected dose/g tissue of the radiotracer in the tumor divided by the % injected dose/g […] in the background tissue (i.e., fat, muscle, lung, blood).
(§2) B. Biodistribution Studies of ^11C analogs in Tumor-Bearing Mice. Biodistribution studies were conducted in mature Balb/c mice that were implanted with EMT-6 mammary tumors identified herein as EMT-6 BALB/C mice to create laboratory tumor-bearing mice. The mice were implanted in the scapular region seven days prior to the study. Animals were injected with 100-150 μCi of the ^11C-labeled radiotracer and the animals were sacrificed at 5, 30, and 60 min post-i.v. injection of the radiotracer.
(§3) A series of biodistribution studies in tumor-bearing mice were also conducted with [^76Br]8, [^76Br]6, [^125I]8i, and [^125I]6i.

[2] = molecular target: T1, σ2 receptors in the breast tumors (Mus musculus, UniProt Q8VD00); assay: In vivo blocking studies with YUN 143 in tumor-bearing mice; settings: blocking agent YUN 143 (1 mg/kg, i.v.); time point of highest % I.D./gram tumor
T1 construct: mature Balb/c mice that were implanted with EMT-6 mammary tumors; from tissue; host or cells: EMT-6 mammary tumours in Balb/c mice, in vivo
T1 sequence (Q8VD00 1-176): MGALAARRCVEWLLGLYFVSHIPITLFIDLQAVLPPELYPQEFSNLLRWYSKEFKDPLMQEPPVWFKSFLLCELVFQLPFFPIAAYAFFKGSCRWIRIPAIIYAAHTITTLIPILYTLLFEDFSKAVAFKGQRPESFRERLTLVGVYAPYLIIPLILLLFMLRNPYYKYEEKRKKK
Excerpt: The blocking agent was YUN 143, which has a high affinity for σ1 and σ2 receptors. Animals were sacrificed at the time point displaying the highest % I.D./gram tumor.
The inventors then conducted blocking studies in order to confirm that the radiotracer labeled σ2 receptors in the breast tumors. […] We have previously reported that [^18F]YUN 143 labels σ1 and σ2 receptors in breast tumor xenografts (Mach et al., 2001).

[3] = system: EMT-6 mammary tumors; assay: Comparison with [18F]FLT in tumor-bearing mice; type: in vivo; settings: 1 hr for [11C]10; 2 hr post-i.v. injection for [76Br]6 and [125I]6i
[4] = Biodistribution in EMT-6 BALB/C mice; type: in vivo; settings: Balb/c, mouse, intravenous
Description: as §1, §2, §3

[5] = kidney, read-out: % ID per gram kidney
[6] = liver, read-out: % ID per gram liver

ratio Tumor:blood ([1]; 5 min): 1.37 ± 0.33
ratio Tumor:fat ([1]; 5 min): 2.28 ± 0.32
ratio Tumor:heart ([1]; 5 min): 0.71 ± 0.12
ratio Tumor:lung ([1]; 5 min): 0.31 ± 0.11
ratio Tumor:muscle ([1]; 5 min): 0.93 ± 0.13
ratio Tumor:blood ([1]; 30 min): 1.80 ± 0.26
ratio Tumor:fat ([1]; 30 min): 3.68 ± 1.14
ratio Tumor:heart ([1]; 30 min): 2.53 ± 0.55
ratio Tumor:lung ([1]; 30 min): 1.06 ± 0.24
ratio Tumor:muscle ([1]; 30 min): 3.18 ± 0.51
ratio Tumor:blood ([1]; 1 hour): 1.81 ± 0.11
ratio Tumor:fat ([1]; 1 hour): 5.36 ± 2.38
ratio Tumor:heart ([1]; 1 hour): 2.78 ± 0.79
ratio Tumor:lung ([1]; 1 hour): 1.28 ± 0.41
ratio Tumor:muscle ([1]; 1 hour): 2.78 ± 0.62
% ID per gram blood ([1]; 5 min): 3.09 ± 0.33 % ID per gram
% ID per gram blood ([1]; 30 min): 1.31 ± 0.11 % ID per gram
% ID per gram blood ([1]; 1 hour): 0.73 ± 0.05 % ID per gram
% ID per gram brain ([1]; 5 min): 2.29 ± 0.28 % ID per gram
% ID per gram brain ([1]; 30 min): 0.28 ± 0.03 % ID per gram
% ID per gram brain ([1]; 1 hour): 0.15 ± 0.01 % ID per gram
% ID per gram fat ([1]; 5 min): 1.88 ± 0.50 % ID per gram
% ID per gram fat ([1]; 30 min): 0.68 ± 0.19 % ID per gram
% ID per gram fat ([1]; 1 hour): 0.33 ± 0.24 % ID per gram
% ID per gram heart ([1]; 5 min): 5.86 ± 0.47 % ID per gram
% ID per gram heart ([1]; 30 min): 0.95 ± 0.17 % ID per gram
% ID per gram heart ([1]; 1 hour): 0.50 ± 0.11 % ID per gram
% ID per gram kidney ([1]; 5 min): 20.50 ± 1.86 % ID per gram
% ID per gram kidney ([1]; 30 min): 4.12 ± 0.51 % ID per gram
% ID per gram kidney ([1]; 1 hour): 2.26 ± 0.36 % ID per gram
% ID per gram liver ([1]; 5 min): 12.32 ± 1.73 % ID per gram
% ID per gram liver ([1]; 30 min): 9.65 ± 2.00 % ID per gram
% ID per gram liver ([1]; 1 hour): 3.00 ± 0.21 % ID per gram
% ID per gram lung ([1]; 5 min): 14.02 ± 1.40 % ID per gram
% ID per gram lung ([1]; 30 min): 2.27 ± 0.42 % ID per gram
% ID per gram lung ([1]; 1 hour): 1.09 ± 0.26 % ID per gram
% ID per gram muscle ([1]; 5 min): 4.49 ± 0.45 % ID per gram
% ID per gram muscle ([1]; 30 min): 0.75 ± 0.13 % ID per gram
% ID per gram muscle ([1]; 1 hour): 0.49 ± 0.11 % ID per gram
% ID per gram tumor ([1]; 5 min): 4.22 ± 1.01 % ID per gram
% ID per gram tumor ([1]; 30 min): 2.35 ± 0.27 % ID per gram
% ID per gram tumor ([1]; 1 hour): 1.32 ± 0.17 % ID per gram
SMILES: COc1cc2c(cc1OC)CN(CCCCNC(=O)c1cc(C)cc(OC)c1O[11CH3])CC2 [[^11C]10]
in vivo blocking study result [2]: consistent with the labeling of σ2 receptors in vivo
tumor:background ratios compared with [18F]FLT [3]: tumor:lung and tumor:fat ratios equal to [^18F]FLT and tumor:blood, tumor:muscle and tumor:heart ratios that are greater than that of [18F]FLT

tissue uptake at 2 h [4, 5]: 2.45 ± 0.25 %ID/g
tissue uptake at 4 h [4, 5]: 0.63 ± 0.11 %ID/g
tissue uptake at 2 h [4, 6]: 1.91 ± 0.2 %ID/g
tissue uptake at 4 h [4, 6]: 0.9 ± 0.21 %ID/g
tissue uptake at 4 h ([4]; lung, read-out: % ID per gram lung): 0.29 ± 0.05 %ID/g
ratio Tumor:blood ([1]; 5 min): 1.73 ± 0.46
ratio Tumor:fat ([1]; 5 min): 1.00 ± 0.20
ratio Tumor:heart ([1]; 5 min): 0.61 ± 0.07
ratio Tumor:lung ([1]; 5 min): 0.15 ± 0.02
ratio Tumor:muscle ([1]; 5 min): 0.98 ± 0.13
ratio Tumor:blood ([1]; 30 min): 2.07 ± 0.32
ratio Tumor:fat ([1]; 30 min): 2.62 ± 0.27
ratio Tumor:heart ([1]; 30 min): 2.32 ± 0.18
ratio Tumor:lung ([1]; 30 min): 0.82 ± 0.09
ratio Tumor:muscle ([1]; 30 min): 3.94 ± 0.55
ratio Tumor:blood ([1]; 1 hour): 2.44 ± 0.53
ratio Tumor:fat ([1]; 1 hour): 4.85 ± 0.67
ratio Tumor:heart ([1]; 1 hour): 3.89 ± 0.08
ratio Tumor:lung ([1]; 1 hour): 1.66 ± 0.17
ratio Tumor:muscle ([1]; 1 hour): 4.26 ± 0.74
ratio Tumor:blood ([1]; 2 hour): 2.83 ± 1.62
ratio Tumor:fat ([1]; 2 hour): 5.86 ± 2.93
ratio Tumor:heart ([1]; 2 hour): 4.85 ± 2.31
ratio Tumor:lung ([1]; 2 hour): 1.99 ± 1.04
ratio Tumor:muscle ([1]; 2 hour): 6.99 ± 4.44
ratio Tumor:blood ([1]; 4 hour): 3.11 ± 0.85
ratio Tumor:fat ([1]; 4 hour): 9.59 ± 4.55
ratio Tumor:heart ([1]; 4 hour): 5.91 ± 1.65
ratio Tumor:lung ([1]; 4 hour): 2.83 ± 0.19
ratio Tumor:muscle ([1]; 4 hour): 8.98 ± 3.01
% ID per gram blood ([1]; 5 min): 2.37 ± 0.26 % ID per gram
% ID per gram blood ([1]; 30 min): 2.19 ± 0.16 % ID per gram
% ID per gram blood ([1]; 1 hour): 1.52 ± 0.49 % ID per gram
% ID per gram blood ([1]; 2 hour): 0.65 ± 0.07 % ID per gram
% ID per gram blood ([1]; 4 hour): 0.29 ± 0.11 % ID per gram
% ID per gram brain ([1]; 5 min): 1.53 ± 0.14 % ID per gram
% ID per gram brain ([1]; 30 min): 0.39 ± 0.03 % ID per gram
% ID per gram brain ([1]; 1 hour): 0.15 ± 0.03 % ID per gram
% ID per gram brain ([1]; 2 hour): 0.06 ± 0.01 % ID per gram
% ID per gram brain ([1]; 4 hour): 0.02 ± 0.01 % ID per gram
% ID per gram fat ([1]; 5 min): 4.15 ± 0.91 % ID per gram
% ID per gram fat ([1]; 30 min): 1.73 ± 0.20 % ID per gram
% ID per gram fat ([1]; 1 hour): 0.74 ± 0.17 % ID per gram
% ID per gram fat ([1]; 2 hour): 0.33 ± 0.08 % ID per gram
% ID per gram fat ([1]; 4 hour): 0.10 ± 0.05 % ID per gram
% ID per gram heart ([1]; 5 min): 6.55 ± 0.54 % ID per gram
% ID per gram heart ([1]; 30 min): 1.94 ± 0.09 % ID per gram
% ID per gram heart ([1]; 1 hour): 0.91 ± 0.10 % ID per gram
% ID per gram heart ([1]; 2 hour): 0.40 ± 0.05 % ID per gram
% ID per gram heart ([1]; 4 hour): 0.15 ± 0.04 % ID per gram
% ID per gram kidney ([1]; 5 min): 29.51 ± 2.23 % ID per gram
% ID per gram kidney ([1]; 30 min): 13.69 ± 0.35 % ID per gram
% ID per gram kidney ([1]; 1 hour): 5.94 ± 1.22 % ID per gram
% ID per gram liver ([1]; 5 min): 13.20 ± 2.04 % ID per gram
% ID per gram liver ([1]; 30 min): 8.77 ± 0.88 % ID per gram
% ID per gram liver ([1]; 1 hour): 4.24 ± 0.60 % ID per gram
% ID per gram lung ([1]; 5 min): 27.13 ± 1.61 % ID per gram
% ID per gram lung ([1]; 30 min): 5.50 ± 0.62 % ID per gram
% ID per gram lung ([1]; 1 hour): 2.12 ± 0.19 % ID per gram
% ID per gram lung ([1]; 2 hour): 1.01 ± 0.18 % ID per gram
% ID per gram muscle ([1]; 5 min): 4.10 ± 0.33 % ID per gram
% ID per gram muscle ([1]; 30 min): 1.21 ± 0.17 % ID per gram
% ID per gram muscle ([1]; 1 hour): 0.87 ± 0.22 % ID per gram
% ID per gram muscle ([1]; 2 hour): 0.31 ± 0.10 % ID per gram
% ID per gram muscle ([1]; 4 hour): 0.10 ± 0.04 % ID per gram
% ID per gram tumor ([1]; 5 min): 4.02 ± 0.55 % ID per gram
% ID per gram tumor ([1]; 30 min): 4.50 ± 0.43 % ID per gram
% ID per gram tumor ([1]; 1 hour): 3.53 ± 0.42 % ID per gram
% ID per gram tumor ([1]; 2 hour): 1.88 ± 0.76 % ID per gram
% ID per gram tumor ([1]; 4 hour): 0.82 ± 0.09 % ID per gram
SMILES: COc1cc2c(cc1OC)CN(CCCCNC(=O)c1cc([125I])cc(OC)c1OC)CC2 [[^125I]6i]
in vivo blocking study result [2]: consistent with the labeling of σ2 receptors in vivo
